System: sperm cells
Assay: effects of detection agents on the motility of sperm cells (microscopic analysis)
Type: cell-based
Details: 60 min, ambient temperature; for Cells: cells in total / Cells: motile cells: 50:50 with sperm sample 60/72
Method: The possible effects of two detection agents, MTT and crystal violet, on the motility of sperm cells were tested. Stock solutions of MTT and crystal violet of 5 mg/ml and 1 mg/ml, respectively, were prepared, and these were diluted two-fold serially. The detection agent solutions were mixed with sperm samples comprising 60 million motile cells per milliliter and 72 million cells per milliliter in total (denoted 60/72) in a 50:50 ratio and the mixtures were incubated for 60 min at ambient temperature before analysing the cells microscopically.

## CN(C)c1ccc(C(=C2C=CC(=[N+](C)C)C=C2)c2ccc(N(C)C)cc2)cc1 [Crystal violet, crystal violet]
Crystal violet 0.125 mg/ml
  Cells: cells in total: 56 million per milliliter
  Cells: motile cells: 37 million per milliliter
Crystal violet 0.25 mg/ml
  Cells: cells in total: 56 million per milliliter
  Cells: motile cells: 32 million per milliliter
Crystal violet 0.5 mg/ml
  Cells: cells in total: 43 million per milliliter
  Cells: motile cells: 27 million per milliliter
Crystal violet 1 mg/ml
  Cells: cells in total: 63 million per milliliter
  Cells: motile cells: 40 million per milliliter
Concentrations of Table 3
  ratio of motile versus non-motile cells (% motile): not affected
